Measurements reported in US6897206B2, “Combinations for the treatment of inflammatory disorders” (CombinatoRx, Inc., priority 2001, dated 2005).

What was measured:
TNFα secretion [1] = assay: TNFα ELISA; suppression of TNFα secretion from phorbol 12-myristate 13-acetate and ionomycin stimulated PBMCs/blood; settings: Homo sapiens, PBMC; for inhibition at 0.05 µM: amoxapine 0.050 μM alone (prednisolone 0.000 μM); for inhibition at 0.199 µM: amoxapine 0.199 μM alone (prednisolone 0.000 μM); for inhibition at 0.797 µM: amoxapine 0.797 μM alone (prednisolone 0.000 μM); for inhibition at 0.004 µM: prednisolone 0.004 μM alone (amoxapine 0.000 μM); for inhibition at 0.017 µM: prednisolone 0.017 μM alone (amoxapine 0.000 μM); for inhibition at 0.069 µM: prednisolone 0.069 μM alone (amoxapine 0.000 μM); for inhibition at 0.277 µM: prednisolone 0.277 μM alone (amoxapine 0.000 μM)
Protocol: Stock solutions of amoxapine (16 mg/ml) (Sigma-Aldrich, St. Louis, Mo.; catalog number A129) and prednisolone (1.6 mg/ml) (Sigma-Aldrich, catalog number P6004) were made in dimethylsulfoxide (DMSO). The amoxapine master plates were made by adding 25 μl of the concentrated stock solution to columns 3, 9, and 15 (rows C through N) of a polypropylene 384-well storage plate that had been pre-filled with 75 μl of anhydrous DMSO. Using a TomTec Quadra Plus liquid handler, the 25 μl of amoxapine stock solution was serially diluted two-fold four times into the adjacent columns (columns 4-7, 10-13, 16-19). […] The prednisolone master plates were made by adding 25 μl of the concentrated prednisolone stock solution to the appropriate wells (row C, columns 3-8; row C, columns 9-14; row C, columns 15-20; row I, columns 3-8; row I, columns 9-14; row I, columns 15-20) of the appropriate prednisolone master polypropylene 384-well storage plate. These master plates had been pre-filled with 75 μl of anhydrous DMSO. Using the TomTec Quadra Plus liquid handler, the 25 μl was serially diluted two-fold four times in the adjacent rows (rows D-G, and J-M). […] Master plates were sealed and stored at −20 C until ready for use.
The final amoxapine/prednisolone combination plate was generated by transferring 1 μl from each of the amoxapine and prednisolone master plates to a dilution plate containing 100 μl of media (RPMI; Gibco BRL, #11875-085), 10% Fetal Bovine Serum (Gibco BRL, #25140-097), 2% Penicillin/Streptomycin (Gibco BRL, #15140-122)) using the TomTec Quadra Plus liquid handler. This dilution plate was then mixed and a 10 μl aliquot transferred to the final assay plate, which had been pre-filled with 40 μl/well RPMI media containing the appropriate stimulant to activate TNFα secretion (see below).
(§1) The compound dilution matrix was assayed using a TNFα ELISA method. Briefly, a 100 μl suspension of diluted human peripheral blood mononuclear cells (PBMCs) contained within each well of a polystyrene 384-well plate (NalgeNunc) was stimulated to secrete TNFα by treatment with a final concentration of 10 ng/ml phorbol 12-myristate 13-acetate (Sigma) and 750 ng/μl ionomycin (Sigma). Various concentrations of each test compound were added at the time of stimulation. After 16-18 hours of incubation at 37° C. in a humidified incubator, the plate was centrifuged and the supernatant transferred to a white opaque polystyrene 384 well plate (NalgeNunc, Maxisorb) coated with an anti-TNF antibody (PharMingen, #18631 D). After a two-hour incubation, the plate was washed (Tecan PowerWasher 384) with phosphate buffered saline (PBS) containing 0.1% Tween 20 (polyoxyethylene sorbitan monolaurate) and incubated for an additional one hour with another anti-TNF antibody that was biotin labeled (PharMingen, 18642D) and horseradish peroxidase (HRP) coupled to strepavidin (PharMingen, #13047E). After the plate was washed with 0.1% Tween 20/PBS, the HRP substrate (which contains luminol, hydrogen peroxide, and an enhancer such as para-iodophenol) was added to each well and light intensity measured using a LJL Analyst luminometer. Control wells contained a final concentration of 1 μg/ml cyclosporin A (Sigma).

TNFα secretion [2] = assay: cells; settings: Homo sapiens, read-out: TNFα inhibition
Protocol: as §1

[3] = read-out: TNFα inhibition, Table 1
[4] = read-out: TNFα inhibition, Table 2

For `Clc1ccc2c(c1)C(N1CCNCC1)=Nc1ccccc1O2` [Amoxapine, 2-cloro-11(1-piperazinyl)dibenz[b,f][1,4]oxapine], the inhibition at 0.4 µM (TNFα secretion [1]; read-out: TNFα inhibition activity, follow-up secondary screen, amoxapine alone at 400 nM) was 16%, the inhibition at 0.05 µM (TNFα secretion [1]; [3]) was 7.3% and the inhibition at 0.199 µM (TNFα secretion [1]; [3]) was 16.7%. It also gave an inhibition at 0.797 µM (TNFα secretion [1]; [3]) of 24.3%, an inhibition at 3.188 µM (TNFα secretion [1]; read-out: TNFα inhibition, Table 1, amoxapine 3.188 μM alone (prednisolone 0.000 μM)) of 50.4% and an inhibition at 12.75 µM (TNFα secretion [1]; read-out: TNFα inhibition, Table 1, amoxapine 12.750 μM alone (prednisolone 0.000 μM)) of 73%. It also gave an inhibition at 0.05 µM (TNFα secretion [1]; [4]) of -3.31%, an inhibition at 0.1 µM (TNFα secretion [1]; read-out: TNFα inhibition, Table 2, amoxapine 0.100 μM alone (prednisolone 0.000 μM)) of 3.6% and an inhibition at 0.199 µM (TNFα secretion [1]; [4]) of 14.2%. The inhibition at 0.398 µM (TNFα secretion [1]; read-out: TNFα inhibition, Table 2, amoxapine 0.398 μM alone (prednisolone 0.000 μM)) was 16.4%, the inhibition at 0.797 µM (TNFα secretion [1]; [4]) was 21.9% and the inhibition at 1.593 µM (TNFα secretion [1]; read-out: TNFα inhibition, Table 2, amoxapine 1.593 μM alone (prednisolone 0.000 μM)) was 37.1%. The inhibition at 3.187 µM (TNFα secretion [1]; read-out: TNFα inhibition, Table 2, amoxapine 3.187 μM alone (prednisolone 0.000 μM)) was 48%, the inhibition at 6.373 µM (TNFα secretion [1]; read-out: TNFα inhibition, Table 2, amoxapine 6.373 μM alone (prednisolone 0.000 μM)) was 64.4% and the inhibition at 12.747 µM (TNFα secretion [1]; read-out: TNFα inhibition, Table 2, amoxapine 12.747 μM alone (prednisolone 0.000 μM)) was 80.9%. It also gave an inhibition at 0.05 µM (TNFα secretion [2]) of 3%, an inhibition at 0.1 µM (TNFα secretion [2]) of 5.52% and an inhibition at 0.199 µM (TNFα secretion [2]) of 2.39%. For the same compound, the inhibition at 0.398 µM (TNFα secretion [2]) was 8.1%, the inhibition at 0.797 µM (TNFα secretion [2]) was 13.1% and the inhibition at 1.593 µM (TNFα secretion [2]) was 16.8%. For the same compound, the inhibition at 3.187 µM (TNFα secretion [2]) was 24.2%, the inhibition at 6.373 µM (TNFα secretion [2]) was 21.3% and the inhibition at 12.747 µM (TNFα secretion [2]) was 49.6%.
`C[C@]12C=CC(=O)C=C1CC[C@@H]1[C@@H]2[C@@H](O)C[C@@]2(C)[C@H]1CC[C@]2(O)C(=O)CO` [Prednisolone, 1,4-pregnadiene-11beta, 17alpha,21-triol-3,20-dione] was tested, and the inhibition at 0.009 µM (TNFα secretion [1]; read-out: TNFα inhibition activity, follow-up secondary screen, prednisolone alone at 9 nM) was 14%, the inhibition at 0.004 µM (TNFα secretion [1]; [3]) was 2.69% and the inhibition at 0.017 µM (TNFα secretion [1]; [3]) was 19.1%. It also gave an inhibition at 0.069 µM (TNFα secretion [1]; [3]) of 22.3%, an inhibition at 0.277 µM (TNFα secretion [1]; [3]) of 26.8% and an inhibition at 1.11 µM (TNFα secretion [1]; read-out: TNFα inhibition, Table 1, prednisolone 1.110 μM alone (amoxapine 0.000 μM)) of 27.6%. The inhibition at 0.004 µM (TNFα secretion [1]; [4]) was 9.62%, the inhibition at 0.009 µM (TNFα secretion [1]; read-out: TNFα inhibition, Table 2, prednisolone 0.009 μM alone (amoxapine 0.000 μM)) was 14.3% and the inhibition at 0.017 µM (TNFα secretion [1]; [4]) was 24.7%. For the same compound, the inhibition at 0.035 µM (TNFα secretion [1]; read-out: TNFα inhibition, Table 2, prednisolone 0.035 μM alone (amoxapine 0.000 μM)) was 24.1%, the inhibition at 0.069 µM (TNFα secretion [1]; [4]) was 24.6% and the inhibition at 0.139 µM (TNFα secretion [1]; read-out: TNFα inhibition, Table 2, prednisolone 0.139 μM alone (amoxapine 0.000 μM)) was 25.7%. For the same compound, the inhibition at 0.277 µM (TNFα secretion [1]; [4]) was 36.9%, the inhibition at 1.11 µM (TNFα secretion [1]; read-out: TNFα inhibition, Table 2, prednisolone 1.110 μM alone (amoxapine 0.000 μM)) was 34.6% and the inhibition at 1.11 µM (TNFα secretion [1]; read-out: TNFα inhibition, follow-up secondary screen, 1110 nM prednisolone alone) was 35%. It also gave an inhibition at 1.11 µM (TNFα secretion [1]; read-out: inhibit TNFα secretion, prednisolone alone at 1.11 μM) of 28%, an inhibition at 0.004 µM (TNFα secretion [2]) of 12.1% and an inhibition at 0.009 µM (TNFα secretion [2]) of 30.2%. It also gave an inhibition at 0.017 µM (TNFα secretion [2]) of 37.1%, an inhibition at 0.035 µM (TNFα secretion [2]) of 33.1% and an inhibition at 0.069 µM (TNFα secretion [2]) of 38.8%. It also gave an inhibition at 0.139 µM (TNFα secretion [2]) of 48.5%, an inhibition at 0.277 µM (TNFα secretion [2]) of 48.8% and an inhibition at 1.11 µM (TNFα secretion [2]) of 60.1%.
